The target of the assay is T1, human transferrin receptor (hTfR) (Homo sapiens, UniProt P02786).
T1 construct: made in house
Nature of the assay: Evaluation of molecular interaction between transferrin receptor (hTfR) and peptide using surface plasmon resonance (SPR). Format: binding. The settings on record: KD class for binding to hTfR by SPR; peptide with the linker shown in the same line; 'low signal indicates no activity'; read-out: SPR. The method, then: Evaluation Test of Molecular Interaction Between Transferrin Receptor (hTfR) and Peptide Using Surface Plasmon Resonance (SPR)
The intermolecular interactions of various synthesized peptides with the transferrin receptor (hTfR) by surface plasmon resonance (SPR) of the peptides were tested by the methods described below. Specific test methods are shown below.
NTA sensor chip (Global Life Sciences Technologies Japan K.K.) was inserted into BiacoreT200 (Global Life Sciences Technologies Japan K.K.), then the priming operation was performed three times by using running buffer containing: 10 mM HEPES pH 8.0 (Nacalai Tesque, Inc.), 150 mM NaCl (Nacalai Tesque, Inc.), 0.05% Tween 20 (Nacalai Tesque, Inc.), 0.1% BSA (SIGMA-ALDRICH) and 1.0% DMSO (FUJIFILM Wako Pure Chemical Corporation), and equilibrated at a flow rate of 30 μL/min. 350 mM EDTA solution was reacted at a flow rate of 10 μL/min for 60 seconds, 0.5 mM […] solution (Kishida Chemical Co., Ltd.) was reacted at a flow rate of 10 μL/min for 60 seconds, and then the NTA sensor chip was washed with 3 mM EDTA solution (Nacalai Tesque, Inc.) at a flow rate of 10 μL/min for 60 seconds. After mixing 50 μL each of 60 mM EDC solution (Global Life Science Technologies Japan K.K.) and 650 mM NHS solution (Global Life Science Technologies Japan K.K.), the reaction was carried out at a flow rate of 10 μL/min for 420 seconds. 150 μL of 0.5 μM hTfR dimer solution was prepared by dilution with running buffer and reacted at a flow rate of 10 μL/min for 300 seconds to immobilize hTfR on the NTA sensor chip. For the human transferrin receptor (hTfR), recombinant hTfR described in Example 2 of WO2018/124121 was used. After immobilization, capping was performed by reacting with 1.0 M ethanolamine solution (Global Life Sciences Technologies Japan K.K.) at a flow rate of 10 μL/min for 420 seconds. Peptide lysate prepared in DMSO solution to 10 mM was diluted with running buffer to be a final concentration of 10 μM peptide lysate, then peptide solutions of 100 nM, 50 nM, 25 nM, 10 nM, and 5 nM were prepared. Using the above samples, the kinetics of the peptide against hTfR was obtained by SPR measurement.
The kinetic evaluation model was single-cycle kinetics, and curve fitting was performed using Biacore T200 Evaluation Software Version 3.0 (Global Life Science Technologies Japan K.K.). The binding of the peptide to hTfR was evaluated by performing curve fitting on the obtained sensorgram by least squares method and obtaining the KD value.

Positions of bridges follow the written chain, without caps; N, C: chain ends. Non-standard residues stand in square brackets, D forms with d. Residues, ends and D or L forms follow the SMILES beside them. *: point of attachment. Trp(1-CH2COOH) = N[C@@H](Cc1cn(CC(=O)O)c2ccccc12)C(=O)O; Phe(3-COOH) = N[C@@H](Cc1cccc(C(=O)O)c1)C(=O)O; NH(CH2CH2O)8Me = COCCOCCOCCOCCOCCOCCOCCOCCN*; NMePhe(3-Cl) = CN[C@@H](Cc1cccc(Cl)c1)C(=O)O; 3Pal(6-NH2) = Nc1ccc(C[C@H](N)C(=O)O)cn1; NMeY = CN[C@@H](Cc1ccc(O)cc1)C(=O)O; 3Pal = N[C@@H](Cc1cccnc1)C(=O)O; PEG4 = NCCOCCOCCOCCOCCC(=O)O; Carboxymethyl = O=C(O)C*; NHCH2CH2OMe = COCCN*

T1 sequence (P02786 89-760 limits assumed): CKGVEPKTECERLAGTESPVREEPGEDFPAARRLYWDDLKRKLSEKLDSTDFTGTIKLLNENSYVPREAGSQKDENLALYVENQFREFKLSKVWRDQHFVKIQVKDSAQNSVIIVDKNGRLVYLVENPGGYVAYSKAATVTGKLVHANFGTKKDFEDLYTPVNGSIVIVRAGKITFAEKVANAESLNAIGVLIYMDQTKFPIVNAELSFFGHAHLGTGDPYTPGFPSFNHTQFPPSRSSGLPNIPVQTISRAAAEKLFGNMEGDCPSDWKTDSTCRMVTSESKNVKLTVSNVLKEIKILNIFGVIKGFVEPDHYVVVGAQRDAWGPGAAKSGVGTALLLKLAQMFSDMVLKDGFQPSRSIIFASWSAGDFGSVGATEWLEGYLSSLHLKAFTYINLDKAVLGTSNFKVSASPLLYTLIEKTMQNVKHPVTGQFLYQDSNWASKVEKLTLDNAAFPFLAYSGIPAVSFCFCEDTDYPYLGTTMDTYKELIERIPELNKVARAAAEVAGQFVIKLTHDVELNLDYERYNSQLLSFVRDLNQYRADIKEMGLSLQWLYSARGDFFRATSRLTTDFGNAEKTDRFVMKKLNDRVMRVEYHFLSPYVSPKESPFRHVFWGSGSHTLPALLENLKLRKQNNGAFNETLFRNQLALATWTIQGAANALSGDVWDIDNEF

Take `CC[C@H](C)[C@@H]1NC(=O)[C@H](Cc2ccc(OC)cc2)NC(=O)[C@H](Cc2ccc(O)cc2)NC(=O)[C@H](CC(N)=O)NC(=O)[C@H](Cc2c[nH]c3ccccc23)NC(=O)[C@H](C(C)C)NC(=O)[C@H](Cc2cccc(Cl)c2)N(C)C(=O)[C@H](C(C)C)NC(=O)[C@H](C)NC(=O)CSC[C@@H](C(=O)NCCOCCOCCOCCOCCC(N)=O)NC(=O)[C@H](Cc2ccc(O)cc2)N(C)C(=O)[C@H](Cc2ccccc2)NC(=O)[C@H](CCC(=O)NCCOC)NC(=O)[C@H](CCC(=O)NCCOC)NC(=O)[C@H]([C@@H](C)CC)NC1=O` [894_0330] ({CH2CO}-AV[NMePhe(3-Cl)]VWNYY(Me)IIE(NHCH2CH2OMe)E(NHCH2CH2OMe)F[NMeY]C[PEG4]-NH2; thioether N-15): the Kd lay within 1 to 100 nM. Regarding `CC[C@H](C)[C@@H]1NC(=O)[C@H](Cc2ccc(OC)cc2)NC(=O)[C@H](Cc2ccc(O)cc2)NC(=O)[C@H](CC(N)=O)NC(=O)[C@H](Cc2c[nH]c3ccccc23)NC(=O)[C@H](C(C)C)NC(=O)[C@H](Cc2cccc(Cl)c2)N(C)C(=O)[C@H](C(C)C)NC(=O)[C@H](C)NC(=O)CSC[C@@H](C(=O)NCCOCCOCCOCCOCCC(N)=O)NC(=O)[C@H](Cc2ccc(O)cc2)N(C)C(=O)[C@H](Cc2ccccc2)NC(=O)[C@H](CCC(N)=O)NC(=O)[C@H](CCC(N)=O)NC(=O)[C@H]([C@@H](C)CC)NC1=O` [894_0331] ({CH2CO}-AV[NMePhe(3-Cl)]VWNYY(Me)IIQQF[NMeY]C[PEG4]-NH2; thioether N-15), the Kd was in the range of 1 to 100 nM.

Consider `CC[C@H](C)[C@@H]1NC(=O)[C@H](Cc2ccc(OC)cc2)NC(=O)[C@H](Cc2ccc(N)nc2)NC(=O)[C@H](CC(N)=O)NC(=O)[C@H](Cc2cn(CC(=O)O)c3ccccc23)NC(=O)[C@H](C(C)C)NC(=O)[C@H](Cc2cccc(Cl)c2)N(C)C(=O)[C@H](C(C)C)NC(=O)[C@H](C)NC(=O)CSC[C@@H](C(=O)NCCOCCOCCOCCOCCC(N)=O)NC(=O)[C@H](Cc2ccc(O)cc2)N(C)C(=O)[C@H](Cc2ccccc2)NC(=O)[C@H](CCCNC(=N)N)NC(=O)[C@H](CCCNC(=N)N)NC(=O)[C@H]([C@@H](C)CC)NC1=O` [894_0332] ({CH2CO}-AV[NMePhe(3-Cl)]V[Trp(1-CH2COOH)]N[3Pal(6-NH2)]Y(Me)IIRRF[NMeY]C[PEG4]-NH2; thioether N-15), for which the Kd lay in the range of 1 to 100 nM. Consider `CC[C@H](C)[C@@H]1NC(=O)[C@H](Cc2cccnc2)NC(=O)[C@H](Cc2ccc(O)cc2)NC(=O)[C@H](CC(N)=O)NC(=O)[C@H](Cc2cn(CC(=O)O)c3ccccc23)NC(=O)[C@H](C(C)C)NC(=O)[C@H](Cc2cccc(Cl)c2)N(C)C(=O)[C@H](C(C)C)NC(=O)[C@H](C)NC(=O)CSC[C@@H](C(=O)NCCOCCOCCOCCOCCC(N)=O)NC(=O)[C@H](Cc2ccc(O)cc2)N(C)C(=O)[C@H](Cc2ccccc2)NC(=O)[C@H](CCCNC(=N)N)NC(=O)[C@H](CCCNC(=N)N)NC(=O)[C@H]([C@@H](C)CC)NC1=O` [894_0333] ({CH2CO}-AV[NMePhe(3-Cl)]V[Trp(1-CH2COOH)]NY[3Pal]IIRRF[NMeY]C[PEG4]-NH2; thioether N-15), for which the Kd is 1 to 100 nM. The value for `CC[C@H](C)[C@@H]1NC(=O)[C@H](Cc2ccc(OC)cc2)NC(=O)[C@H](Cc2ccc(O)cc2)NC(=O)[C@H](CC(N)=O)NC(=O)[C@H](Cc2cn(CC(=O)O)c3ccccc23)NC(=O)[C@H](C(C)C)NC(=O)[C@H](Cc2cccc(Cl)c2)N(C)C(=O)[C@H](C(C)C)NC(=O)[C@H](C)NC(=O)CSC[C@@H](C(=O)NCCOCCOCCOCCOCCC(N)=O)NC(=O)[C@H](Cc2ccc(O)cc2)N(C)C(=O)[C@H](Cc2ccncc2)NC(=O)[C@H](CCCNC(=N)N)NC(=O)[C@H](CCCNC(=N)N)NC(=O)[C@H]([C@@H](C)CC)NC1=O` [894_0335] was 1 to 100 nM; that for `CC[C@H](C)[C@@H]1NC(=O)[C@H](Cc2ccc(OC)cc2)NC(=O)[C@H](Cc2ccc(O)cc2)NC(=O)[C@H](CC(N)=O)NC(=O)[C@H](Cc2cn(CC(=O)O)c3ccccc23)NC(=O)[C@H](C(C)C)NC(=O)[C@H](Cc2cccc(Cl)c2)N(C)C(=O)[C@H](C(C)C)NC(=O)[C@H](C)NC(=O)CSC[C@@H](C(=O)NCCOCCOCCOCCOCCC(N)=O)NC(=O)[C@H](Cc2ccc(O)cc2)N(C)C(=O)[C@H](Cc2cccc(C(=O)O)c2)NC(=O)[C@H](CCCNC(=N)N)NC(=O)[C@H](CCCNC(=N)N)NC(=O)[C@H]([C@@H](C)CC)NC1=O` [894_0336] was 1 to 100 nM; that for `CC[C@H](C)[C@@H]1NC(=O)[C@H](Cc2cccnc2)NC(=O)[C@H](Cc2ccc(N)nc2)NC(=O)[C@H](CC(N)=O)NC(=O)[C@H](Cc2cn(CC(=O)O)c3ccccc23)NC(=O)[C@H](C(C)C)NC(=O)[C@H](Cc2cccc(Cl)c2)N(C)C(=O)[C@H](C(C)C)NC(=O)[C@H](C)NC(=O)CSC[C@@H](C(=O)NCCOCCOCCOCCOCCC(N)=O)NC(=O)[C@H](Cc2ccc(O)cc2)N(C)C(=O)[C@H](Cc2ccccc2)NC(=O)[C@H](CCCNC(=N)N)NC(=O)[C@H](CCCNC(=N)N)NC(=O)[C@H]([C@@H](C)CC)NC1=O` [894_0338] ({CH2CO}-AV[NMePhe(3-Cl)]V[Trp(1-CH2COOH)]N[3Pal(6-NH2)][3Pal]IIRRF[NMeY]C[PEG4]-NH2; thioether N-15) was 1 to 100 nM.

Turning to `CC[C@H](C)[C@@H]1NC(=O)[C@H](Cc2cccnc2)NC(=O)[C@H](Cc2ccc(N)nc2)NC(=O)[C@H](CC(N)=O)NC(=O)[C@H](Cc2c[nH]c3ccccc23)NC(=O)[C@H](C(C)C)NC(=O)[C@H](Cc2cccc(Cl)c2)N(C)C(=O)[C@H](C(C)C)NC(=O)[C@H](C)NC(=O)CSC[C@@H](C(=O)NCCOCCOCCOCCOCCC(N)=O)NC(=O)[C@H](Cc2ccc(O)cc2)N(C)C(=O)[C@H](Cc2ccccc2)NC(=O)[C@H](CCCNC(=N)N)NC(=O)[C@H](CCCNC(=N)N)NC(=O)[C@H]([C@@H](C)CC)NC1=O` [894_0357] ({CH2CO}-AV[NMePhe(3-Cl)]VWN[3Pal(6-NH2)][3Pal]IIRRF[NMeY]C[PEG4]-NH2; thioether N-15), the Kd was in the range of 1 to 100 nM. The value for `CC[C@H](C)[C@@H]1NC(=O)[C@H](Cc2ccc(OCC(=O)O)cc2)NC(=O)[C@H](Cc2ccc(N)nc2)NC(=O)[C@H](CC(N)=O)NC(=O)[C@H](Cc2c[nH]c3ccccc23)NC(=O)[C@H](C(C)C)NC(=O)[C@H](Cc2cccc(Cl)c2)N(C)C(=O)[C@H](C(C)C)NC(=O)[C@H](C)NC(=O)CSC[C@@H](C(=O)NCCOCCOCCOCCOCCC(N)=O)NC(=O)[C@H](Cc2ccc(O)cc2)N(C)C(=O)[C@H](Cc2ccccc2)NC(=O)[C@H](CCCNC(=N)N)NC(=O)[C@H](CCCNC(=N)N)NC(=O)[C@H]([C@@H](C)CC)NC1=O` [894_0358] ({CH2CO}-AV[NMePhe(3-Cl)]VWN[3Pal(6-NH2)]Y(Carboxymethyl)IIRRF[NMeY]C[PEG4]-NH2; thioether N-15) was 1 to 100 nM; that for `CC[C@H](C)[C@@H]1NC(=O)[C@H](Cc2ccc(OC)cc2)NC(=O)[C@H](Cc2ccc(N)nc2)NC(=O)[C@H](CC(N)=O)NC(=O)[C@H](Cc2c[nH]c3ccccc23)NC(=O)[C@H](C(C)C)NC(=O)[C@H](Cc2cccc(Cl)c2)N(C)C(=O)[C@H](C(C)C)NC(=O)[C@H](C)NC(=O)CSC[C@@H](C(=O)NCCOCCOCCOCCOCCC(N)=O)NC(=O)[C@H](Cc2ccc(O)cc2)N(C)C(=O)[C@H](Cc2cccc(C(=O)O)c2)NC(=O)[C@H](CCCNC(=N)N)NC(=O)[C@H](CCCNC(=N)N)NC(=O)[C@H]([C@@H](C)CC)NC1=O` [894_0359] ({CH2CO}-AV[NMePhe(3-Cl)]VWN[3Pal(6-NH2)]Y(Me)IIRR[Phe(3-COOH)][NMeY]C[PEG4]-NH2; thioether N-15) was 1 to 100 nM; that for `CC[C@H](C)[C@@H]1NC(=O)[C@H](Cc2cccnc2)NC(=O)[C@H](Cc2ccc(O)cc2)NC(=O)[C@H](CC(N)=O)NC(=O)[C@H](Cc2c[nH]c3ccccc23)NC(=O)[C@H](C(C)C)NC(=O)[C@H](Cc2cccc(Cl)c2)N(C)C(=O)[C@H](C(C)C)NC(=O)[C@H](C)NC(=O)CSC[C@@H](C(=O)NCCOCCOCCOCCOCCC(N)=O)NC(=O)[C@H](Cc2ccc(O)cc2)N(C)C(=O)[C@H](Cc2ccccc2)NC(=O)[C@H](CCC(=O)NCCOCCOCCOCCOCCOCCOCCOCCOC)NC(=O)[C@H](CCCNC(=N)N)NC(=O)[C@H]([C@@H](C)CC)NC1=O` [894_0360] ({CH2CO}-AV[NMePhe(3-Cl)]VWNY[3Pal]IIRE(NH(CH2CH2O)8Me)F[NMeY]C[PEG4]-NH2; thioether N-15) was 1 to 100 nM.

(Values after patent US20260116920A1, “HUMAN TRANSFERRIN RECEPTOR BINDING PEPTIDE” (PEPTIDREAM INC., priority 2021, published 2026).)
